# Source: PubChem BioAssay (NCI)
# “And” between values parts separate entries of the source, which are not always exact repeats. Equal values may be shown once.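 Dose response: 5 concentrations. Exposure: 48 h. Format: 96-well plates. Endpoint: linear interpolation; highest concentration if not reached. The concentration for 50% growth inhibition is given as GI50. TGI: total growth inhibition.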
# Tests used:
# Experiment in all cases: NCI tumour cell line growth inhibition, 48 h
# RXF 393 renal = tested on: RXF 393 renal
# SNB-75 CNS = tested on: SNB-75 CNS
# HT29 colon = tested on: HT29 colon
# U251 CNS = tested on: U251 CNS
# SF-539 CNS = tested on: SF-539 CNS
# SF-268 CNS = tested on: SF-268 CNS
# P388 leukemia = tested on: P388 leukemia
# SN12K1 renal = tested on: SN12K1 renal
# NCI-H460 lung = tested on: NCI-H460 lung
# SK-MEL-5 melanoma = tested on: SK-MEL-5 melanoma
# IGROV1 ovarian = tested on: IGROV1 ovarian
# NCI/ADR-RES ovarian = tested on: NCI/ADR-RES ovarian
# SW-620 colon = tested on: SW-620 colon
# EKVX NSCLC = tested on: EKVX NSCLC
# NCI-H522 lung = tested on: NCI-H522 lung
# SN12C renal = tested on: SN12C renal
# CAKI-1 renal = tested on: CAKI-1 renal
# NCI-H23 lung = tested on: NCI-H23 lung
# K-562 leukemia = tested on: K-562 leukemia
# HOP-18 NSCLC = tested on: HOP-18 NSCLC
# UO-31 renal = tested on: UO-31 renal
# KM12 colon = tested on: KM12 colon
# OVCAR-4 ovarian = tested on: OVCAR-4 ovarian
# HOP-62 NSCLC = tested on: HOP-62 NSCLC
# OVCAR-5 ovarian = tested on: OVCAR-5 ovarian
# SK-OV-3 ovarian = tested on: SK-OV-3 ovarian
# SK-MEL-2 melanoma = tested on: SK-MEL-2 melanoma
# UACC-62 melanoma = tested on: UACC-62 melanoma
# MCF7 breast = tested on: MCF7 breast
# COLO 205 colon = tested on: COLO 205 colon
# A549 NSCLC = tested on: A549 NSCLC
# LOX IMVI melanoma = tested on: LOX IMVI melanoma
# OVCAR-8 ovarian = tested on: OVCAR-8 ovarian
# MOLT-4 leukemia = tested on: MOLT-4 leukemia
# HCC-2998 colon = tested on: HCC-2998 colon
# HOP-92 NSCLC = tested on: HOP-92 NSCLC
# UACC-257 melanoma = tested on: UACC-257 melanoma
# SK-MEL-28 melanoma = tested on: SK-MEL-28 melanoma
# CCRF-CEM leukemia = tested on: CCRF-CEM leukemia
# HCT-15 colon = tested on: HCT-15 colon
# RPMI-8226 leukemia = tested on: RPMI-8226 leukemia
# SNB-78 CNS = tested on: SNB-78 CNS
# KM20L2 colon = tested on: KM20L2 colon
# DLD-1 colon = tested on: DLD-1 colon
# P388/ADR leukemia = tested on: P388/ADR leukemia
# M19-MEL melanoma = tested on: M19-MEL melanoma
# SF-295 CNS = tested on: SF-295 CNS
# SNB-19 CNS = tested on: SNB-19 CNS
# HL-60(TB) leukemia = tested on: HL-60(TB) leukemia
# HCT-116 colon = tested on: HCT-116 colon
# MALME-3M melanoma = tested on: MALME-3M melanoma
# OVCAR-3 ovarian = tested on: OVCAR-3 ovarian
# A498 renal = tested on: A498 renal
compound,measurement,setting,value
[Cl][Pt+2][Cl].[NH-]C1CCCCC1[NH-] (configuration not stated),GI50,RXF 393 renal,> 57.9 µM and 66.8 µM and > 28.6 µM
same,TGI,RXF 393 renal,> 100 µM
same,GI50,SNB-75 CNS,25.1 µM and 19.6 µM and 3.41 µM
same,TGI,SNB-75 CNS,97.6 µM and > 77.9 µM and 71 µM
same,TGI,HT29 colon,> 100 µM and 31 µM
same,GI50,U251 CNS,21 µM and 9.15 µM and 13.2 µM
same,TGI,U251 CNS,> 100 µM
same,GI50,SF-539 CNS,21.6 µM and 6.79 µM and 6.99 µM
same,TGI,SF-539 CNS,> 100 µM
same,TGI,SF-268 CNS,56.7 µM and > 100 µM and > 58.3 µM
same,TGI,P388 leukemia,6.91 µM and 7.39 µM and 2.14 µM
same,TGI,SN12K1 renal,> 100 µM
same,GI50,NCI-H460 lung,1.94 µM and 0.903 µM and 0.287 µM
same,TGI,NCI-H460 lung,17.9 µM and 36.1 µM and 14 µM
same,TGI,SK-MEL-5 melanoma,33 µM and 19.5 µM and 4.39 µM
same,GI50,IGROV1 ovarian,18.9 µM and 9.23 µM and 2.45 µM
same,TGI,IGROV1 ovarian,> 100 µM and 45.8 µM
same,TGI,NCI/ADR-RES ovarian,> 60.6 µM and > 100 µM and 13.1 µM
same,TGI,SW-620 colon,44.1 µM and > 56.4 µM and 13.1 µM
same,TGI,EKVX NSCLC,> 100 µM and 55.2 µM and 31.1 µM
same,GI50,NCI-H522 lung,3.31 µM and 5.88 µM and 1.49 µM
same,TGI,NCI-H522 lung,20.7 µM and 38.2 µM and 12.4 µM
same,GI50,SN12C renal,8.78 µM and 6.22 µM and 2.62 µM
same,TGI,SN12C renal,> 100 µM
same,GI50,CAKI-1 renal,1.44 µM and 3.52 µM and 0.769 µM
same,TGI,CAKI-1 renal,> 53 µM and > 100 µM and 18.1 µM
same,GI50,NCI-H23 lung,7.21 µM and 3.26 µM and 1.07 µM
same,TGI,NCI-H23 lung,> 58.2 µM and > 100 µM and 17.5 µM
same,TGI,K-562 leukemia,> 100 µM and 17.8 µM
same,GI50,HOP-18 NSCLC,25.6 µM and > 100 µM and 28.4 µM
same,TGI,HOP-18 NSCLC,> 100 µM
same,TGI,UO-31 renal,> 100 µM
same,GI50,KM12 colon,80.6 µM and > 72.1 µM and 10.6 µM
same,TGI,KM12 colon,> 100 µM
same,GI50,OVCAR-4 ovarian,14.5 µM and 9.24 µM and 2.19 µM
same,TGI,OVCAR-4 ovarian,64.2 µM and 90.5 µM and 47.1 µM
same,GI50,HOP-62 NSCLC,53.7 µM and > 100 µM and 22.3 µM
same,TGI,HOP-62 NSCLC,> 100 µM
same,TGI,OVCAR-5 ovarian,78.4 µM and > 100 µM and 14.3 µM
same,GI50,SK-OV-3 ovarian,18.5 µM and > 80.9 µM and 25.1 µM
same,TGI,SK-OV-3 ovarian,> 100 µM
same,GI50,SK-MEL-2 melanoma,28.8 µM and 12.8 µM and 3.93 µM
same,TGI,SK-MEL-2 melanoma,> 74.1 µM and > 100 µM and 29.5 µM
same,GI50,UACC-62 melanoma,11.7 µM and 10.1 µM and 1.47 µM
same,TGI,UACC-62 melanoma,43.4 µM and > 100 µM and 17.3 µM
same,TGI,MCF7 breast,> 37 µM and > 100 µM and 10.1 µM
same,TGI,COLO 205 colon,> 49.5 µM and > 70.4 µM and 13.6 µM
same,TGI,A549 NSCLC,> 100 µM
same,TGI,LOX IMVI melanoma,> 59.3 µM
same,TGI,OVCAR-8 ovarian,> 100 µM
same,TGI,MOLT-4 leukemia,> 51.2 µM and > 96.6 µM and 37.9 µM
same,GI50,HCC-2998 colon,42.6 µM and 17.2 µM and 4.67 µM
same,TGI,HCC-2998 colon,> 100 µM and 24.2 µM
same,GI50,HOP-92 NSCLC,35.3 µM and > 100 µM and 29.7 µM
same,TGI,HOP-92 NSCLC,> 100 µM
same,TGI,UACC-257 melanoma,> 96.6 µM
same,TGI,SK-MEL-28 melanoma,65.8 µM and 56.4 µM and 20.6 µM
same,GI50,CCRF-CEM leukemia,3.19 µM and 2.91 µM and 0.872 µM
same,TGI,CCRF-CEM leukemia,> 100 µM
same,GI50,HCT-15 colon,5.58 µM and 4.7 µM and 0.677 µM
same,TGI,HCT-15 colon,35.3 µM and > 100 µM and 37.9 µM
same,TGI,RPMI-8226 leukemia,> 50.5 µM
same,GI50,SNB-78 CNS,29 µM and 30 µM and 11.5 µM
same,TGI,SNB-78 CNS,> 100 µM
same,GI50,KM20L2 colon,8.07 µM and 2.19 µM and 1.36 µM
same,TGI,KM20L2 colon,44.6 µM and > 52.9 µM and 29.6 µM
same,TGI,DLD-1 colon,> 100 µM
same,GI50,P388/ADR leukemia,4.69 µM and 2.22 µM and 0.629 µM
same,TGI,P388/ADR leukemia,98.9 µM and > 100 µM and > 52.4 µM
same,TGI,M19-MEL melanoma,23.9 µM and 25.7 µM and 10.6 µM
same,GI50,SF-295 CNS,6.32 µM and 5.35 µM and 1.06 µM
same,TGI,SF-295 CNS,> 100 µM
same,TGI,SNB-19 CNS,> 100 µM
same,GI50,HL-60(TB) leukemia,0.884 µM and 1.46 µM and 0.199 µM
same,TGI,HL-60(TB) leukemia,4.49 µM and 8.45 µM and 1.89 µM
same,TGI,HCT-116 colon,> 100 µM and 16 µM
same,GI50,MALME-3M melanoma,10.2 µM and 3.39 µM and 1.14 µM
same,TGI,MALME-3M melanoma,32.4 µM and 24 µM and 7.45 µM
same,GI50,OVCAR-3 ovarian,9.42 µM and 6.62 µM and 2.98 µM
same,TGI,OVCAR-3 ovarian,> 59.4 µM and > 47.2 µM and 20.8 µM
same,GI50,A498 renal,> 100 µM and 12.6 µM
same,TGI,A498 renal,> 100 µM and 65.3 µM
